These results are taken from article PMC6797481, “Identification of an allosteric binding site on the human glycine transporter, GlyT2, for bioactive lipid analgesics” (eLife, 2019).

A word on the EC50: it is the concentration at which the effect is half-maximal. One may read the IC50 as the concentration at which inhibition is half-maximal. The low end stands for inhibition by little substance, the high end for a need for much substance.

The target of series [1] is T1, GlyT2 R439L mutant (Homo sapiens, UniProt Q9Y345, R439L).
T1 construct: expressed in transfected cells; host or cells: Xenopus laevis oocytes (cRNA injection)
T1 sequence (Q9Y345 1-797 R439L): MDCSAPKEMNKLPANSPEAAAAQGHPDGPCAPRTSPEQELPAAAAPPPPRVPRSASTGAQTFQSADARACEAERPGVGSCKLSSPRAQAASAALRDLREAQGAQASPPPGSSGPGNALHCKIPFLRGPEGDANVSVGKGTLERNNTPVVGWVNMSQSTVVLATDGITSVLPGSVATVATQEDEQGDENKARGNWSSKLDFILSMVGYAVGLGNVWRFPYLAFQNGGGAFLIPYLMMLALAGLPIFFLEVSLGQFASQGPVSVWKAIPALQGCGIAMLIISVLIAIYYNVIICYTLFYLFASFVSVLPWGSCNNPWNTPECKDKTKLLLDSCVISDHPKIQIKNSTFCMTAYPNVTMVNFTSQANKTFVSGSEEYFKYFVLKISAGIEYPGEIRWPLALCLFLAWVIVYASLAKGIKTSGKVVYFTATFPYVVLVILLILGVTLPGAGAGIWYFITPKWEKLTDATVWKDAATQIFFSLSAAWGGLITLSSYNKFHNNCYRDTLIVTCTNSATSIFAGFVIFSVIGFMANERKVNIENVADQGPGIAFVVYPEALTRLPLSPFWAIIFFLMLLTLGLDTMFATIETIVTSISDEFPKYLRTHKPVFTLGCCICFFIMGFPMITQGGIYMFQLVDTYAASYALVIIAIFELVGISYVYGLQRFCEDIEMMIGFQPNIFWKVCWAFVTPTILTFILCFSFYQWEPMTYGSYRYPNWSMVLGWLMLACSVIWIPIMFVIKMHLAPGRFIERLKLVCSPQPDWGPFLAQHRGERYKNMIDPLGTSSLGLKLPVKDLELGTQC
Nature of the series: Glycine transport currents, two electrode voltage clamp, oocytes expressing GlyT2 R439L. Format: cell-based. Here is the method: Glycine was first applied to establish maximal transport current.
Compounds were tested for inhibition of glycine transport on Xenopus laevis oocytes expressing mutant GlyT1 and GlyT2 transporters. n values are in brackets, with measurements taken from at least 2 batches of oocytes.

In series [2] the target is GlyT2 D469A mutant (Homo sapiens, UniProt Q9Y345, D469A). Particulars: read-out: Glycine EC50; glycine transport, GlyT2 D469A (vestibule allosteric site). How it is done:
(§1) Human GlyT1b or GlyT2a (herein referred to as GlyT1 and GlyT2) cDNA were sub-cloned into the plasmid oocyte transcription vector (pOTV). Site-directed mutagenesis was performed using traditional PCR techniques, and sequences confirmed by the Australian Genome Research Facility (Sydney, Australia). WT and mutant plasmid DNA were linearised with SpeI (New England Biolabs (Genesearch) Arundel, Australia) and RNA transcribed by T7 RNA polymerase using the mMessagemMachine kit (Ambion, TX, USA).
(§2) Oocytes were extracted from female Xenopus laevis frogs and detached from follicle cell containing lobes by digestion with 2 mg/mL collagenase A (Boehringer, Mannheim, Germany). Defoliculated stage V-VI oocytes were injected with 4.6 ng of cRNA encoding WT or mutant transporter (Drummond Nanoinject, Drummond Scientific Co., Broomall, PA, USA). Surgical proceedures have been approved by the University of Sydney Animal Ethics Committee (protocol 2016/970). The oocytes were stored at 16–18°C for 2–5 days in ND96 solution (96 mM NaCl, 2 mM KCL, 1 mM MgCl2, 1.8 mM CaCl2, 5 mM HEPES, pH 7.55), supplemented with 2.5 mM sodium pyruvate, 0.5 mM theophylline, 50 µg/mL gentamicin and […] tetracycline.
(§3) 2–5 days following injection, glycine transport currents were measured at −60 mV using Geneclamp 500 amplifier (Axon Instruments, Foster City, CA, USA) with a Powerlab 2/20 chart recorder (ADInstruments, Sydney, Australia) and chart software (ADInstruments). All data were subsequently analysed using GraphPad Prism 7.02 (GraphPad Software, San Diego, CA).
(§4) The function of each mutant transporter was tested by measuring glycine concentration dependent transport currents in ND96 (96 mM Na^+) to drive transport. EC50 values were determined using the modified Michaelis-Menten equation:(1) I=([GIy].Imax)/EC50+[GIy] where I is current (nA), [Gly] is the concentration of glycine, Imax is the current generated by a maximal concentration of glycine (300 µM) and EC50 is the concentration of glycine that generates a half maximal current. Values are presented as mean ± SEM obtained fromn ≥3 cells from at least two batches of oocytes. To determine if mutations affected glycine transport, one way ANOVA tests were employed, with a Dunnett’s post-hoc test used for comparison with WT GlyT2. For L425I comparison with WT GlyT1 a two-tailed t-test was used. Statistical significance were represented as p<0.05 *, p<0.01 **, p<0.001 *** etc. in the following figures.
(§5) Glycine concentration response curves were performed on WT and mutant transporters to generate EC50 values. Transport currents were measured in the presence of increasing concentrations of glycine (1 – 300 μM).

For series [3], the target named is GlyT2 E701A mutant (Homo sapiens, UniProt Q9Y345, E701A). The note with it: read-out: Glycine EC50; glycine transport, GlyT2 E701A (vestibule allosteric site). Here is the method: as §1, §2, §3, §4, §5
Sequence of GlyT2 E701A mutant (Q9Y345 whole entry E701A): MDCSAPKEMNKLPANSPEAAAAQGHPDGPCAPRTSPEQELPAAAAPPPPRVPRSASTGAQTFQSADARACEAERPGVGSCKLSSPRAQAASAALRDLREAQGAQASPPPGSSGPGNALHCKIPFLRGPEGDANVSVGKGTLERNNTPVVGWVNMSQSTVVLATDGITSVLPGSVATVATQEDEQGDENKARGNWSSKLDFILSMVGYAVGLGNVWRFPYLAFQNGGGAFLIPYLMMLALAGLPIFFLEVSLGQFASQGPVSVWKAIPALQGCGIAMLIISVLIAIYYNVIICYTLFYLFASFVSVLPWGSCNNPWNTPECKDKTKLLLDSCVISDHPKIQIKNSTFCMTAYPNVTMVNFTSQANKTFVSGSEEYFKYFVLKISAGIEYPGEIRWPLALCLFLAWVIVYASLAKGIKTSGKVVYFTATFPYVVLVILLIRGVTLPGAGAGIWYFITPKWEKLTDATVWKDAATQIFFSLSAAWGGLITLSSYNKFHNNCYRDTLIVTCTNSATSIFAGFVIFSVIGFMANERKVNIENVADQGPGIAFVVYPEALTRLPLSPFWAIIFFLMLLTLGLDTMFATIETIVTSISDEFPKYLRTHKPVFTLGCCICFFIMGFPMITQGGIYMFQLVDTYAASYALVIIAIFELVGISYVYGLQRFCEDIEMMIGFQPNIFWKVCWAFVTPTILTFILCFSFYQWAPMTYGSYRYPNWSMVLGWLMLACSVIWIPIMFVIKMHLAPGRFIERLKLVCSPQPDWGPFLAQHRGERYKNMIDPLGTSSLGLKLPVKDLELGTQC
Series [4] relates to GlyT2 F569A/V/L mutants. Particulars: glycine transport, GlyT2 F569A/V/L (TM8). How it is done:
as §1, §2, §3, §4, §5

The target of series [5] is GlyT2 P429A mutant (Homo sapiens, UniProt Q9Y345, P429A). The note with it: glycine transport, GlyT2 P429A (TM5). How it is done: as §1, §2, §3, §4, §5
Sequence of GlyT2 P429A mutant (Q9Y345 whole entry P429A): as the sequence (Q9Y345 whole entry E701A) above, with P429A, A701E counted along it
Series [6] concerns the target GlyT2 Q473A mutant (Homo sapiens, UniProt Q9Y345, Q473A). Particulars: read-out: Glycine EC50; glycine transport, GlyT2 Q473A (vestibule allosteric site). Here is the method: as §1, §2, §3, §4, §5
The target of series [7] is GlyT2 S696A mutant (Homo sapiens, UniProt Q9Y345, S696A). The note with it: read-out: Glycine EC50; glycine transport, GlyT2 S696A (vestibule allosteric site). How it is done: as §1, §2, §3, §4, §5
Sequence of GlyT2 S696A mutant (Q9Y345 whole entry S696A): as the sequence (Q9Y345 whole entry E701A) above, with S696A, A701E counted along it
Series [8] addresses GlyT2 T472A mutant (Homo sapiens, UniProt Q9Y345, T472A). Particulars: glycine transport, GlyT2 T472A (vestibule allosteric site). How it is done: as §1, §2, §3, §4, §5
In series [9] the target is GlyT2 T634A mutant (Homo sapiens, UniProt Q9Y345, T634A). Particulars: read-out: Glycine EC50; glycine transport, GlyT2 T634A (vestibule allosteric site). Here is the method:
as §1, §2, §3, §4, §5

Details of series [10]: method as in Mostyn et al., 2019. The note with it: ref Mostyn et al., 2019; cited from earlier work.

Sequence of GlyT2 D469A mutant (Q9Y345 whole entry D469A): as the sequence (Q9Y345 whole entry E701A) above, with D469A, A701E counted along it
Sequence of GlyT2 Q473A mutant (Q9Y345 whole entry Q473A): as the sequence (Q9Y345 whole entry E701A) above, with Q473A, A701E counted along it
Sequence of GlyT2 T634A mutant (Q9Y345 whole entry T634A): as the sequence (Q9Y345 whole entry E701A) above, with T634A, A701E counted along it
Sequence of GlyT2 T472A mutant (Q9Y345 whole entry T472A): as the sequence (Q9Y345 whole entry E701A) above, with T472A, A701E counted along it

Turning to `NCC(=O)O` [Glycine], the concentration for a half-maximal effect (EC50) was found to be 23 ± 4 µM in series [1] (glycine transport, GlyT2 R439L (TM5)); 110 ± 12.8 µM in series [2]; 16.5 ± 0.87 µM in series [3]; 498 ± 146 µM in [6]; 25.6 ± 2.7 µM in series [7]; 28.6 ± 3.2 µM in series [9]. Also, the “Glycine EC50” value in series [4], in series [5] and in series [8] was “No transport currents” each time.
For `CCCCCCCC/C=C\CCCCCCCC(=O)N[C@@H](Cc1c[nH]c2ccccc12)C(=O)O` [oleoyl l-Tryptophan], in series [1] (GlyT2 R439L, mean (95% CI)), half-maximal inhibition (IC50) required 0.109 µM. Also, in series [1] (GlyT2 R439L, mean ± SEM), the “% Max. inhibition” value was 75.3 ± 4.2 (p=0.1040) %.
With oleoyl d-Lysine, the “blood brain barrier permeability” value in series [10] is recorded as “blood brain barrier permeable”.
